From patent US7893066B2, “Pyridol[2,3-B]pyrazinones for use as stearoyl CoA desaturase inhibitors” (Gilead Palo Alto, Inc., priority 2006, dated 2011) come the findings set out here.

The assay addresses T1, stearoyl-CoA desaturase (SCD) (Rattus norvegicus, UniProt P07308).
T1 construct: from tissue; host or cells: liver microsomes of male Sprague Dawley rats, with SCD induced by a carbohydrate-rich diet
T1 sequence (P07308 1-358): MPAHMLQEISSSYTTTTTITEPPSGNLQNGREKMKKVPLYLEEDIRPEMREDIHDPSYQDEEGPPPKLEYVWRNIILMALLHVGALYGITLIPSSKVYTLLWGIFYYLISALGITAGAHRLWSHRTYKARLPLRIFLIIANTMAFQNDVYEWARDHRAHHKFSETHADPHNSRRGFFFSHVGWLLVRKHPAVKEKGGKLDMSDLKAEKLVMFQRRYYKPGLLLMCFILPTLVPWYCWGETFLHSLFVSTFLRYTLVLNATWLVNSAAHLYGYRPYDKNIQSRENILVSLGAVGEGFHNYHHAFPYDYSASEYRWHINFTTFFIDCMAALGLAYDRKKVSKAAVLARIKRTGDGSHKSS
Put plainly: SCD assay, rat liver microsomes with [3H]stearoyl CoA (adapted from Talamo and Bloch). It is filed as biochemical. The following applies: second table, same SCD assay. The text has this:
The identification of compounds of the invention as SCD inhibitors was readily accomplished using the SCD enzyme and microsomal assay procedure described in Talamo and Bloch (1969) Analytical Biochemistry 29:300-304.
The rat liver microsomes were collected according to the procedure described in Ozols (1990) Methods Enzm, 182:225.
Male Spraque Dawley Rats were placed on regimented fasting protocol for one week to stimulate SCD enzymatic activity. 48-hour periods were alternated between feeding and fasting to induce and down-regulate SCD activity with SCD activity being induced via carbohydrate rich diet prior to liver perfusion and collection.
The rats were anesthetized with Isoflurane inhalation anesthetic, the liver perfused with cold phosphate buffered saline (PBS), weighed, and chilled in cold homogenization buffer (250 mM sucrose, 10 mM Tris, 1 mM EDTA, pH 7.6.
The livers were finely minced and placed in homogenization tube. 40 mL of homogenization buffer was added to the homogenization tube and the liver homogenized and centrifuged in a pre-chilled SLA-600 TC at 800G rotor for 10 min at 4° C.
Following centrifugation, the supernatant was collected and the pellet removed and discarded. This supernatant was then centrifuged at 10,000G for 35 minutes. Following centrifugation, the supernatant was collected and the pellet discarded. The supernatant was further centrifuged in a pre-chilled 45-Ti rotor at 130,000 G (41,000 RPM) for 90 minutes at 4° C.
The supernatant was then aspirated off and the collected microsomal pellet washed in 25 mL of Glycerol PBS (1×PBS 7.4, 20% Glycerol) and resuspended in 4-5 volumes of Glycerol PBS.
The protein concentration of the microsomal preparation was determined by BCA assay (Pierce) and the microsomes were aliquoted and stored at −80° C.
Biobeads were ground to a smaller size in a mortar and pestle and filtered through 300 μM mesh and then resuspended in 3.6% TCA.
SCD was determined in the desaturase assay buffer. This assay buffer contained 0.1 M Tris buffer, pH 7.2, 2 mM NADH, 4.8 mM ATP, 0.5 mM CoA, 4.8 mM MgCl2, and 0.1% BSA.
1 μl of each compound of Formula I was added to an assay plate by a low volume (0.5-10 μL) multichannel pipette. A DMSO control was also prepared. The microsomes were quickly thawed and added to assay buffer so that a concentration of 1-0.1 mg/ml was achieved (0.5-0.05 mg/ml assay final). 50 μl of the microsome suspension in assay buffer was then added into each well in the compound assay plate, the plate was covered, and the microsomes preincubated with the compounds for 30-60 minutes on the orbital shaker, 50-75 rpm, at room temperature.
After preincubation, the reaction was initiated by the addition of 50 μl of substrate solution (20 μM Stearoyl CoA, [3H]Stearoyl CoA, 74nCi) to the preincubated microsomes/compound suspensions in MilliQ (Millipore) H2O. The reaction mixtures were then incubated for 45 minutes on the orbital shaker at 50-75 rpm at room temperature.
The reaction was terminated by the addition of 10 μl of 21% trichloroacetic acid (TCA) to the reaction mixture followed incubation on the orbital shaker for 30 minutes at 50-75 rpm at room temperature followed by centrifugation for 5 minutes at 3700 rpm.
50 μl of a 6% Bio-Bead suspension in H2O was added to the reaction mixture and the assay plate was sealed. The Bio-Bead mixture was incubated on the orbital shaker for 1 to 24 hours, 100-150 rpm at room temperature, and then the mixture was centrifuged at 2000g for 5 minutes to pellet the Bio-Beads.
25 μl of the supernatant was harvested from each well and transferred to a detection plate. 100 μl of OptiPhase SuperMix scinitillation cocktail (containing sufficient NaOH to neutralize the TCA) was added and the solutions mixed by vigorous shaking (300-400 rpm) for 5 minutes at room temperature.
`CCCc1ccc(-c2nc3ccc(NCc4cccc(C(F)(F)F)c4)nc3n(CCNC(C)=O)c2=O)cc1` [compound 24, N-(2-(3-oxo-2-(4-propylphenyl)-6-(3-(trifluoromethyl)benzylamino)pyrido[2,3-b]pyrazin-4(3H)-yl)ethyl)acetamide] came in with an IC50 of 100 nM.
Then `CC(=O)NCCn1c(=O)c(-c2ccc(NC(C)=O)cc2)nc2ccc(NCc3cccc(C(F)(F)F)c3)nc21` [compound 25, N-(4-(4-(2-acetamidoethyl)-3-oxo-6-(3-(trifluoromethyl)benzylamino)-3,4-dihydropyrido[2,3-b]pyrazin-2-yl)phenyl)acetamide], with 4300 nM; and `CC(=O)NCCn1c(=O)c(-c2ccc(C)cc2)nc2ccc(NCc3cccc(C(F)(F)F)c3)nc21` [compound 26, N-(2-(3-oxo-2-p-tolyl-6-(3-(trifluoromethyl)benzylamino)pyrido[2,3-b]pyrazin-4(3H)-yl)ethyl)acetamide], with 110 nM.
Then `CCc1ccc(-c2nc3ccc(NCc4cccc(C(F)(F)F)c4)nc3n(CCNC(C)=O)c2=O)cc1` [compound 27, N-(2-(2-(4-ethylphenyl)-3-oxo-6-(3-(trifluoromethyl)benzylamino)pyrido[2,3-b]pyrazin-4(3H)-yl)ethyl)acetamide], with 93 nM.
Then `CC(=O)NCCn1c(=O)c(-c2ccc(F)cc2)nc2ccc(NCc3cccc(C(F)(F)F)c3)nc21` [compound 28, N-(2-(2-(4-fluorophenyl)-3-oxo-6-(3-(trifluoromethyl)benzylamino)pyrido[2,3-b]pyrazin-4(3H)-yl)ethyl)acetamide], with 390 nM; and `COc1ccc(-c2nc3ccc(NCc4ccc(Cl)c(Cl)c4)nc3n(CCNC(=O)CN(C)C)c2=O)cc1` [compound 32, N-(2-(6-(3,4-dichlorobenzylamino)-2-(4-methoxyphenyl)-3-oxopyrido[2,3-b]pyrazin-4(3H)-yl)ethyl)-2-(dimethylamino)acetamide], with 12000 nM; and `COc1ccc(-c2nc3ccc(NCc4ccc(Cl)c(Cl)c4)nc3n(CCNC(=O)COC(C)=O)c2=O)cc1` [compound 33, 2-(2-(6-(3,4-dichlorobenzylamino)-2-(4-methoxyphenyl)-3-oxopyrido[2,3-b]pyrazin-4(3H)-yl)ethylamino)-2-oxoethyl acetate], with 120 nM.
Regarding `Cc1nc2ccc(NCc3cccc(C(F)(F)F)c3)nc2n(CCCC(N)=O)c1=O` [compound 36, 4-(2-methyl-3-oxo-6-(3-(trifluoromethyl)benzylamino)pyrido[2,3-b]pyrazin-4(3H)-yl)butanamide], the IC50 came out at 1600 nM.
The result for `COc1ccc(-c2nc3ccc(NCc4ccc(Cl)c(Cl)c4)nc3n(CCNC(=O)CN)c2=O)cc1` [compound 40, 2-amino-N-(2-(6-(3,4-dichlorobenzylamino)-2-(4-methoxyphenyl)-3-oxopyrido[2,3-b]pyrazin-4(3H)-yl)ethyl)acetamide] reads 1900 nM.
The compound `COc1ccc(-c2nc3ccc(NCc4ccc(Cl)c(Cl)c4)nc3n(CCNC(=O)CNC(C)=O)c2=O)cc1` [compound 41, 2-acetamido-N-(2-(6-(3,4-dichlorobenzylamino)-2-(4-methoxyphenyl)-3-oxopyrido[2,3-b]pyrazin-4(3H)-yl)ethyl)acetamide] came in with an IC50 of 1100 nM.
Then `COc1ccc(-c2nc3cc(NCc4ccc(Cl)c(Cl)c4)cnc3n(CCNC(C)=O)c2=O)cc1` [compound 42, N-(2-(7-(3,4-dichlorobenzylamino)-2-(4-methoxyphenyl)-3-oxopyrido[2,3-b]pyrazin-4(3H)-yl)ethyl)acetamide], with 2200 nM; and `CC(=O)NCCn1c(=O)c(C)nc2cc(NCc3ccccc3)cnc21` [compound 43, N-(2-(7-(benzylamino)-2-methyl-3-oxopyrido[2,3-b]pyrazin-4(3H)-yl)ethyl)acetamide], with 1100 nM.
`CC(=O)NCCN1C(=O)C(C)Nc2cc(NC(=O)OCc3ccccc3)cnc21` (centres unmarked) [compound 44, benzyl 4-(2-acetamidoethyl)-2-methyl-3-oxo-1,2,3,4-tetrahydropyrido[2,3-b]pyrazin-7-ylcarbamate] returned an IC50 of 240 nM.
The result for `COc1ccc(-c2nc3ccc(NCc4cccc(C(F)(F)F)c4)nc3n(NC(=O)COC(C)=O)c2=O)cc1` [compound 45, 2-(2-(4-methoxyphenyl)-3-oxo-6-(3-(trifluoromethyl)benzylamino)pyrido[2,3-b]pyrazin-4(3H)-ylamino)-2-oxoethyl acetate] reads 6700 nM; that for `COc1ccc(-c2nc3cc(NC(=O)OCc4ccccc4)ccc3n(CCNC(C)=O)c2=O)cc1` [compound 46, benzyl 1-(2-acetamidoethyl)-3-(4-methoxyphenyl)-2-oxo-1,2-dihydroquinoxalin-6-ylcarbamate], 20000 nM.
The result for `Cc1nc2ccc(NCc3cccc(C(F)(F)F)c3)cc2n(CCNC(=O)CCO)c1=O` [compound 49, 3-hydroxy-N-(2-(3-methyl-2-oxo-7-(3-(trifluoromethyl)benzylamino)quinoxalin-1(2H)-yl)ethyl)propanamide] reads 1100 nM.
The result for `Cc1nc2ccc(NCc3cccc(C(F)(F)F)c3)cc2n(CCC(=O)NCCO)c1=O` [compound 50, N-(2-hydroxyethyl)-3-(3-methyl-2-oxo-7-(3-(trifluoromethyl)benzylamino)quinoxalin-1(2H)-yl)propanamide] reads 230 nM; that for `Cc1nc2ccc(NCc3cccc(C(F)(F)F)c3)cc2n(CCNC(N)=O)c1=O` [compound 53, 1-(2-(3-methyl-2-oxo-7-(3-(trifluoromethyl)benzylamino)quinoxalin-1(2H)-yl)ethyl)urea], 15 nM; that for `COc1ccc(-c2nc3ccc(NCCc4cccc(Cl)c4)cc3n(CCNC(C)=O)c2=O)cc1` [compound 54, N-(2-(7-(3-chlorophenethylamino)-3-(4-methoxyphenyl)-2-oxoquinoxalin-1(2H)-yl)ethyl)acetamide], 100 nM.
`COc1ccc(-c2nc3ccc(NCc4ccc(C)c(C)c4)cc3n(CCNC(C)=O)c2=O)cc1` [compound 57, N-(2-(7-(3,4-dimethylbenzylamino)-3-(4-methoxyphenyl)-2-oxoquinoxalin-1(2H)-yl)ethyl)acetamide]: the concentration for half-maximal inhibition (IC50) came out at 26 nM.
Then `COc1ccc(-c2nc3ccc(NCCc4ccc(Cl)cc4)cc3n(CCNC(C)=O)c2=O)cc1` [compound 58, N-(2-(7-(4-chlorophenethylamino)-3-(4-methoxyphenyl)-2-oxoquinoxalin-1(2H)-yl)ethyl)acetamide], with 82 nM; and `COc1ccc(-c2nc3ccc(NCc4ccc(Cl)c(C(F)(F)F)c4)cc3n(CCNC(C)=O)c2=O)cc1` [compound 62, N-(2-(7-(4-chloro-3-(trifluoromethyl)benzylamino)-3-(4-methoxyphenyl)-2-oxoquinoxalin-1(2H)-yl)ethyl)acetamide;], with 6 nM.
The result for `COc1ccc(-c2nc3ccc(NCc4ccc(F)c(C)c4)cc3n(CCNC(C)=O)c2=O)cc1` [compound 63, N-(2-(7-(4-fluoro-3-methylbenzylamino)-3-(4-methoxyphenyl)-2-oxoquinoxalin-1(2H)-yl)ethyl)acetamide] reads 5 nM.
